Data on 1 compound can be found in patent publication US8569374B2, “NADPH oxidase inhibition pharmacotherapies for obstructive sleep apnea syndrome and its associated morbidities” (The Trustees of the University of Pennsylvania, priority 2004, dated 2013).

“Also recorded” adds a separate entry of the source.

In one assay the test system is WT mice exposed to LTIH. The experiment in a line: Sleep/wake recordings and murine multiple sleep latency test after long-term intermittent hypoxia (LTIH). It counts as in vivo. Particulars: for sleep latency: vs LTIH DMSO vehicle-treated mice. The text has this: Ten-week old male C57BL/6J (B6) mice, gp91^phox−/− mice (B6.129S6-Cybb^tmldin) backcrossed 12 generations to C57BL/6J 000664 and gp91^phox+/+ (WT) backcrossed substrain C57BL/6J 000664 mice (Jackson Laboratory, Bar Harbor, Me.) were studied. Methods and study protocols were approved in full by the Institutional Animal Care and Use Committee of the University of Pennsylvania, conforming with the revised NIH Office of Laboratory Animal Welfare Policy. Food and water were provided ad libitum. Mice were confirmed pathogen free at the time of studies.
(§1) A detailed description of the long-term intermittent hypoxia (LTIH) protocol was recently published. An automated nitrogen/oxygen delivery profile system (Oxycycler model A84XOV; Biospherix, Redfield, N.Y.) produced brief reductions in housing chamber ambient oxygen levels from 21% to 10% for 5 sec every 90 sec, resulting in arterial oxyhemoglobin saturation fluctuations between 95-98% and 83-86%. Sham LTIH, with ambient FIO2 fluctuations from 21% to 19% every 90 sec, held arterial oxyhemoglobin values constant between 96-98%. Both conditions were produced for 10 hr of the lights-on period for a total of 8 wks. Humidity, ambient CO2 and environmental temperature were held constant.
To determine if NADPH oxidase inhibition would also prevent LTIH gene responses, a third series of mice examined for gene responses were WT mice treated systemically throughout LTIH or sham LTIH with 3 mg/kg/day apocynin (Sigma-Aldrich) in DMSO, DMSO or PBS delivered subcutaneously (n=10/group) by way of micro-osmotic pump (1002, Durect, Cupertino, Calif.).
After 8 wks of LTIH or sham LTIH exposures, mice were returned to normoxic conditions for 1 wk. Surgical implantation of electrodes and electrophysiological recordings followed using previously described electrode implantation methods (32). Following 3 d post-operative recovery, mice were connected to recording cables in individual cages, and 4 d later sleep recordings were initiated (beginning 2 wk into recovery from LTIH). Baseline sleep was recorded for 5 days. On recording day 6, a baseline murine multiple sleep latency test (MMSLT) was performed (4 nap opportunities between 2 p.m. and 4 p.m.) to measure baseline sleep propensity (33). On recording day 7, sleep deprivation was performed for 6 hours of the light period (8 a.m. to 2 p.m.), followed by a second MSLT and then recovery sleep was recorded for 12 h. The behavioral state acquisition and analysis program used for these studies was ACQ 3.4 (34), with modifications and behavioral state parameters as previously described (7, 9, 32). Primary variables were total sleep time/24 hr, total NREM sleep time/24 hr and REM sleep time/24 hr, and average sleep latency, before and after short-term sleep loss.
To further investigate the role of NADPH oxidase in the LTIH-induced hypersomnolence and sleepiness, a series of WT mice were implanted with osmotic pumps to systemically deliver either a selective NADPH oxidase inhibitor, apocynin at 3 mg/kg/day, vehicle (dimethylsulfoxide, DMSO) or buffered saline throughout LTIH exposure for 8 wks. Pumps were removed and mice were implanted for sleep recordings as described above for studies in gp91^phox null mice. Apocynin therapy prevented both LTIH reduced wake times and shortened sleep latency.

Another assay has as its system COX-2 mRNA. The experiment in a line: Taqman real-time PCR of COX-2 gene response to LTIH, lateral basal forebrain. It counts as in vivo, mice. Particulars: apocynin in DMSO vehicle throughout LTIH.
From the text: as §1, with “constant. To determine if LTIH results in lasting increases in NADPH oxidase and microglial gene responses, real-time Taqman PCR was performed on laser-captured microdissections or macropunches of selected brain regions in mice exposed to sham LTIH or LTIH, two weeks into recovery to parallel sleep studies, using our methods, as previously published (12, 25). Real-time measurement of a NADPH oxidase subunit (p67^phox). […]” for “constant.”

Another assay deals with TNF-α mRNA. The experiment in a line: Taqman real-time PCR of TNF-α gene response to LTIH, lateral basal forebrain. Format: in vivo, mice. The text has this:
A detailed description of the long-term intermittent hypoxia (LTIH) protocol was recently published. An automated nitrogen/oxygen delivery profile system (Oxycycler model A84XOV; Biospherix, Redfield, N.Y.) produced brief reductions in housing chamber ambient oxygen levels from 21% to 10% for 5 sec every 90 sec, resulting in arterial oxyhemoglobin saturation fluctuations between 95-98% and 83-86%. Sham LTIH, with ambient FIO2 fluctuations from 21% to 19% every 90 sec, held arterial oxyhemoglobin values constant between 96-98%. Both conditions were produced for 10 hr of the lights-on period for a total of 8 wks. Humidity, ambient CO2 and environmental temperature were held constant. To determine if LTIH results in lasting increases in NADPH oxidase and microglial gene responses, real-time Taqman PCR was performed on laser-captured microdissections or macropunches of selected brain regions in mice exposed to sham LTIH or LTIH, two weeks into recovery to parallel sleep studies, using our methods, as previously published (12, 25). Real-time measurement of a NADPH oxidase subunit (p67^phox). To accomplish this, two weeks following conditions of either sham LTIH or LTIH, mice were perfused with PBS; brains were immediately frozen and sectioned (10 μm) for laser-capture microdissections of the following wake-active or hypoxia sensitive regions: frontal cortex (layer V), nucleus basalis […]/substantia inominata/horizontal diagonal band, hippocampus CA1, striatum, lateral hypothalamus, dorsal raphe nucleus, and locus coeruleus, or the following sleep-active adjacent brain regions: median septal diagonal band, medial preoptic area, and ventrolateral preoptic area, collecting 100 captures (40 μm diameter) per region in each mouse (n=6 mice/condition). RNA was purified and cDNA created for primer sets for primer/probe sets in Table 1, for Taqman real time PCR (SDS-7900HT, ABI). […] A second series of mice used for LTIH gene responses were gp91^phox-/- and +/+ mice exposed to either sham LTIH or LTIH for proinflammatory responses. […]
(Quantitative PCR measures a nucleic acid by following its amplification.)

Another assay relates to iNOS mRNA. As to the kind of experiment: Taqman real-time PCR of iNOS gene response to LTIH, lateral basal forebrain. It counts as in vivo, mice. Particulars: apocynin throughout LTIH.
From the text: as §1, with “constant. To determine if LTIH results in lasting increases in NADPH oxidase and microglial gene responses, real-time Taqman PCR was performed on laser-captured microdissections or macropunches of selected brain regions in mice exposed to sham LTIH or LTIH, two weeks into recovery to parallel sleep studies, using our methods, as previously published (12, 25). Real-time measurement of a NADPH oxidase subunit (p67^phox). […]” for “constant.”

For the next assay, the system named is iNOS. As to the kind of experiment: iNOS activity in lateral basal forebrain homogenates ([14C] L-arginine to L-citrulline conversion). Format: in vivo, mice. Particulars: for LTIH increase in iNOS activity: apocynin throughout LTIH. The protocol:
FIG. 5. NADPH oxidase inhibition confers resistance to the long-term intermittent hypoxia (LTIH) proinflammatory response. Proinflammatory gene expression was measured in micropunches in the lateral basal forebrains in gp91^phox wild type controls (gp91^phox WT, n=10) and gp91^phox null mice (gp91^phox null, n=10) for A, TNF-a; B, COX-2 and C, iNOS mRNA copies/2 µg total RNA. D. Total NOS activity (left columns), measured as L-arginine conversion of [^14C] L-arginine to L-citrulline and iNOS activity (right columns) was measured using […] S-Ethyl-N-[4-trifluoromethyl)phenyl]isothiourea (ETPI) added to homogenates (12). […] A detailed description of the long-term intermittent hypoxia (LTIH) protocol was recently published. An automated nitrogen/oxygen delivery profile system (Oxycycler model A84XOV; Biospherix, Redfield, N.Y.) produced brief reductions in housing chamber ambient oxygen levels from 21% to 10% for 5 sec every 90 sec, resulting in arterial oxyhemoglobin saturation fluctuations between 95-98% and 83-86%. Sham LTIH, with ambient FIO2 fluctuations from 21% to 19% every 90 sec, held arterial oxyhemoglobin values constant between 96-98%. Both conditions were produced for 10 hr of the lights-on period for a total of 8 wks. Humidity, ambient CO2 and environmental temperature were held constant. To determine if NADPH oxidase inhibition would also prevent LTIH gene responses, a third series of mice examined for gene responses were WT mice treated systemically throughout LTIH or sham LTIH with 3 mg/kg/day apocynin (Sigma-Aldrich) in DMSO, DMSO or PBS delivered subcutaneously (n=10/group) by way of micro-osmotic pump (1002, Durect, Cupertino, Calif.). […] Lateral basal forebrain iNOS activity was compared in mice treated with or without apocynin throughout LTIH (FIG. 5D). Apocynin therapy, relative to saline therapy had no effect on baseline (sham LTIH) iNOS activity. […] Thus, apocynin therapy throughout LTIH prevented the expected increase in iNOS activity.

The mark [1] stands for this setting: apocynin 3 mg/kg/day throughout LTIH.

With `COc1cc(C(C)=O)ccc1O` [apocynin, 4-hydroxy-3′-methoxy-acetophenon], the NREMS time result in the assay with WT mice exposed to LTIH (apocynin 3 mg/kg/day by osmotic pump throughout 8 wks LTIH, relative to saline and DMSO vehicle) is “reduced NREMS time”. For the same compound, the “wake time/24 hr” value in the assay on WT mice exposed to LTIH (apocynin 3 mg/kg/day by osmotic pump throughout 8 wks LTIH, relative to saline and DMSO vehicle, 2 wk into recovery) is “increased wake times; also recorded: prevented LTIH-induced impaired wakefulness and hypersomnolence”. Also, in the assay on WT mice exposed to LTIH (setting [1]), the “sleep latency vs WT mice without intervention or sham LTIH” value was “not significantly different” and the sleep latency entry is given as “significantly higher than LTIH DMSO vehicle-treated mice”. Further, the sleep latency entry in the assay with WT mice exposed to LTIH (apocynin 3 mg/kg/day throughout LTIH, listed as Apocynin) was “prevented LTIH reduced sleep latency”. In the assay with COX-2 mRNA, the “COX-2 gene expression, reduction relative to sham LTIH” value came out at 65% and the “LTIH COX-2 response” value is “completely blocked the LTIH COX-2 response”. Also, in the assay with TNF-α mRNA (apocynin throughout LTIH), the “LTIH increase in TNF-α gene expression (vs sham LTIH)” value is reported as “completely prevented the increases in TNF-α gene expression” and the “TNF-α response as % of the saline LTIH response” value was found to be 7%. Besides, the “LTIH TNF-α response, Apo vs. DMSO, % lower” value in the assay with TNF-α mRNA (apocynin vs DMSO vehicle during LTIH) turned out to be 73%. Further, the “reduction in iNOS mRNA” value with iNOS mRNA is 94%. Also, the “reduction in iNOS activity, apocynin treated vs. untreated mice” value in the assay with iNOS (LTIH) was determined as 60%. In the assay with iNOS, the “LTIH increase in iNOS activity” value was “prevented the LTIH increase in iNOS activity”. Besides, the “LTIH increase in iNOS activity” value with iNOS (listed as Apocynin) is given as “prevents the anticipated LTIH increase in iNOS activity”. Moreover, in the assay with iNOS (sham LTIH), the “baseline (sham LTIH) iNOS activity, relative to saline therapy” value was “no effect”.
